Holding throughout (assay): absorbance of reduced form, protection from air oxidation, one-site fit
Type in all cases: binding

One assay deals with T1, hemoglobin (Homo sapiens, UniProt P68871+P69905).
T1 construct: gene HBA1; commercial lyophilized hemoglobin with heme

Another assay deals with T2, myoglobin (Homo sapiens, UniProt P02144).
T2 construct: gene MB; commercial protein with heme
T2 sequence (P02144 2-154): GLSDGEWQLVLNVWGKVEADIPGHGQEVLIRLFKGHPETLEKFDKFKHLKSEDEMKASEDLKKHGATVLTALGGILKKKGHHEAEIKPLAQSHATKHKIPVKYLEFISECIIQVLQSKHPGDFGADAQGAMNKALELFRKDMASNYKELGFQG

The next assay has as its target T3, cytochrome c.
T3 construct: gene CYCS; commercial reduced cytochrome c with heme
The following applies: PBS, 2 mM NH4OAc, ambient, 5 days; apparent, for retaining ferrous heme.

T1 sequence (P69905 2-142): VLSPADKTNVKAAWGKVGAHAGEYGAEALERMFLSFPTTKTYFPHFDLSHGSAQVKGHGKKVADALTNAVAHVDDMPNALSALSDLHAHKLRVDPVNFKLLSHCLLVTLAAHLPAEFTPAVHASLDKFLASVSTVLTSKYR
T1 sequence (P68871 2-147): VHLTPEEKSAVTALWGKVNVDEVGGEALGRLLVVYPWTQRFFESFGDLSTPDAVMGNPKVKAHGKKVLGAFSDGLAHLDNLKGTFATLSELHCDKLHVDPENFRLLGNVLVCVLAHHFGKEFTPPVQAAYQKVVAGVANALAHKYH

In the case of `CN(C)C(=N)NC(=N)N` [metformin], the Kd at hemoglobin was found to be 860 µM; at myoglobin, 570 µM; at cytochrome c, 1150 µM.
